The target in the data set is ATP-dependent translocase ABCB1 (Homo sapiens, UniProt P08183). Nature of the data set: TP_TRANSPORTER: transepithelial transport (basal to apical) in Caco-2 cells. The data set is classed as functional, cell-based.
ATP-dependent translocase ABCB1, sequence (P08183 whole entry): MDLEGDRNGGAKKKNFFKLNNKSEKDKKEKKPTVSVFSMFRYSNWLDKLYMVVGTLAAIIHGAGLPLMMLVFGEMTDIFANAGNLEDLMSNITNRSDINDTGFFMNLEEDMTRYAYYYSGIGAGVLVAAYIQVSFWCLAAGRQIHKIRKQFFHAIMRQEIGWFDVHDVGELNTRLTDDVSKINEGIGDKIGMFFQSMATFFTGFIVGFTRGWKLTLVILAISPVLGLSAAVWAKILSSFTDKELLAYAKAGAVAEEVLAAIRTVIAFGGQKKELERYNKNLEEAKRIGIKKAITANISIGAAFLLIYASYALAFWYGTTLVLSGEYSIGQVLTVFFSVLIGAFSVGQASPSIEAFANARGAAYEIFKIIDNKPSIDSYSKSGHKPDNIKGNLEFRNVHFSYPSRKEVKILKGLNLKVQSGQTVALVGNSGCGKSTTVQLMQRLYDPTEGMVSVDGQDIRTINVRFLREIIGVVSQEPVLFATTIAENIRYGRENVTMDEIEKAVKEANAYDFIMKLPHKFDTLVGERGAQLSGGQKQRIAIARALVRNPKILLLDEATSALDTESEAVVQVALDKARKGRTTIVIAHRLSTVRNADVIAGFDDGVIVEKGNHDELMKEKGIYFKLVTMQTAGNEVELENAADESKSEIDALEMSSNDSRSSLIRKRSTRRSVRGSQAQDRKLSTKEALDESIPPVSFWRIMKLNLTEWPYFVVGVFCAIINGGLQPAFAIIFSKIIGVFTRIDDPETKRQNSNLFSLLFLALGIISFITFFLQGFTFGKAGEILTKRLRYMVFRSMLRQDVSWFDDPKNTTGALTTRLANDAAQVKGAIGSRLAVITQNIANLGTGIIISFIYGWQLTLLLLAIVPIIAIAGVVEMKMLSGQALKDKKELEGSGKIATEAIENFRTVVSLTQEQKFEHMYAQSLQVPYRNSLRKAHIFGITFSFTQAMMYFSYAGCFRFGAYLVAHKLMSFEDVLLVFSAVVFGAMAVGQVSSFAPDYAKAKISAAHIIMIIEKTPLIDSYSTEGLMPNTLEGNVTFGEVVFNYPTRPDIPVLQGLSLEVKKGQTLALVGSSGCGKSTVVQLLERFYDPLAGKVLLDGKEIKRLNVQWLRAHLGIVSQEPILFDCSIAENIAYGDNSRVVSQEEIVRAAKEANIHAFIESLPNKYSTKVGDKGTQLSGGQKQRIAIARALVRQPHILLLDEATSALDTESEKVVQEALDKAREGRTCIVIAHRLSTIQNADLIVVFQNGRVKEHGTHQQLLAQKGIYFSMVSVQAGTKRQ

Consider `CC(=O)O[C@@]12CO[C@@H]1C[C@H](O)[C@@]1(C)C(=O)[C@H](O)C3=C(C)[C@@H](OC(=O)[C@H](O)[C@@H](NC(=O)OC(C)(C)C)c4ccccc4)C[C@@](O)([C@@H](OC(=O)c4ccccc4)[C@H]21)C3(C)C.O.O.O` [DOCETAXEL], for which the Activity result is “substrate [+]”.

The record behind these values is ChEMBL document CHEMBL2073992, “Polarized transport of docetaxel and vinblastine mediated by P-glycoprotein in human intestinal epithelial cell monolayers” (Biochem Pharmacol, 1994).
